Experimental data as given in patent US20230257393A1, “MACROMOLECULE-SUPPORTED THIENOAZEPINE COMPOUNDS, AND USES THEREOF” (BOLT BIOTHERAPEUTICS, INC., priority 2020, published 2023).
Read-outs that look alike come from different tables or passages of the source.

Assays:
[1] = molecular target: T1, human TLR8 (Homo sapiens, UniProt Q9NR97); assay: HEK Reporter Assay, HEK293 NFKB reporter cells expressing human TLR8; format: cell-based; conditions: read-out: HEK293 hTLR8 EC50
T1 construct: host or cells: HEK293 reporter cells
T1 sequence (Q9NR97 27-1041): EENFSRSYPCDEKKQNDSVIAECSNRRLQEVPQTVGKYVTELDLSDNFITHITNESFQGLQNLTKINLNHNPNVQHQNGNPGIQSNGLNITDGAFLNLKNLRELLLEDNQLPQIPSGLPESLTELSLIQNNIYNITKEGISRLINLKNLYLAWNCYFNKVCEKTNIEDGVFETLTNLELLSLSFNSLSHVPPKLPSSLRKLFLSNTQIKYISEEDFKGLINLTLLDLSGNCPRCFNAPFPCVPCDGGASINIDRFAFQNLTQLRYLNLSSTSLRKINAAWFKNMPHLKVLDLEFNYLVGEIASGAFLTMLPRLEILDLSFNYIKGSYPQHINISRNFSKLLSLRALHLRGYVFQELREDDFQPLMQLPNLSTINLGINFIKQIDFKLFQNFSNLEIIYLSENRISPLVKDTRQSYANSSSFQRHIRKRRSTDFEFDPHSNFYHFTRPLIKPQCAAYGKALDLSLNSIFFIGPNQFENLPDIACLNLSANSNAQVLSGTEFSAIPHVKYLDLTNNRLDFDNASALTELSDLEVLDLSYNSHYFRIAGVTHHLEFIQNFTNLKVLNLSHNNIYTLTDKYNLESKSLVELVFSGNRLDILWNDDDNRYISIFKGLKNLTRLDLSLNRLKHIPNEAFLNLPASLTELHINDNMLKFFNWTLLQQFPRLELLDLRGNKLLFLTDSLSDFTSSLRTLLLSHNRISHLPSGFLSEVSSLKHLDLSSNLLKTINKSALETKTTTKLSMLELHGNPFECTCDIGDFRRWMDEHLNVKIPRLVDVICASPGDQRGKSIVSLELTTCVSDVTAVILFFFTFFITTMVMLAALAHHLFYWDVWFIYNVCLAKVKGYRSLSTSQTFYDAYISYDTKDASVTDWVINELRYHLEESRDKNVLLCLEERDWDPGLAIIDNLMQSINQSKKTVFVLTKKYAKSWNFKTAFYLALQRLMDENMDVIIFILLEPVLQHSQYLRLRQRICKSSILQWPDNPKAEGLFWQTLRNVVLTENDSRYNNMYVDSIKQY
Procedure: (§1) Each compound was synthesized, purified, and characterized by mass spectrometry and shown to have the mass indicated. Additional experimental procedures are found in the Examples. Activity against HEK293 NFKB reporter cells expressing human TLR7 or human TLR8 was measured according to Example 202.
(§2) HEK293 reporter cells expressing human TLR7 or human TLR8 were purchased from Invivogen and vendor protocols were followed for cellular propagation and experimentation. Briefly, cells were grown to 80-85% confluence at 5% CO2 in DMEM supplemented with 10% FBS, Zeocin, and Blasticidin. Cells were then seeded in 96-well flat plates at 4×10^4 cells/well with substrate containing HEK detection medium and immunostimulatory molecules. Activity was measured using a plate reader at 620-655 nm wavelength.

[2] = molecular target: T2, human TLR7 (Homo sapiens, UniProt Q9NYK1); assay: HEK Reporter Assay, HEK293 NFKB reporter cells expressing human TLR7; format: cell-based; conditions: read-out: HEK293 hTLR7 EC50
T2 construct: host or cells: HEK293 reporter cells
T2 sequence (Q9NYK1 27-1049): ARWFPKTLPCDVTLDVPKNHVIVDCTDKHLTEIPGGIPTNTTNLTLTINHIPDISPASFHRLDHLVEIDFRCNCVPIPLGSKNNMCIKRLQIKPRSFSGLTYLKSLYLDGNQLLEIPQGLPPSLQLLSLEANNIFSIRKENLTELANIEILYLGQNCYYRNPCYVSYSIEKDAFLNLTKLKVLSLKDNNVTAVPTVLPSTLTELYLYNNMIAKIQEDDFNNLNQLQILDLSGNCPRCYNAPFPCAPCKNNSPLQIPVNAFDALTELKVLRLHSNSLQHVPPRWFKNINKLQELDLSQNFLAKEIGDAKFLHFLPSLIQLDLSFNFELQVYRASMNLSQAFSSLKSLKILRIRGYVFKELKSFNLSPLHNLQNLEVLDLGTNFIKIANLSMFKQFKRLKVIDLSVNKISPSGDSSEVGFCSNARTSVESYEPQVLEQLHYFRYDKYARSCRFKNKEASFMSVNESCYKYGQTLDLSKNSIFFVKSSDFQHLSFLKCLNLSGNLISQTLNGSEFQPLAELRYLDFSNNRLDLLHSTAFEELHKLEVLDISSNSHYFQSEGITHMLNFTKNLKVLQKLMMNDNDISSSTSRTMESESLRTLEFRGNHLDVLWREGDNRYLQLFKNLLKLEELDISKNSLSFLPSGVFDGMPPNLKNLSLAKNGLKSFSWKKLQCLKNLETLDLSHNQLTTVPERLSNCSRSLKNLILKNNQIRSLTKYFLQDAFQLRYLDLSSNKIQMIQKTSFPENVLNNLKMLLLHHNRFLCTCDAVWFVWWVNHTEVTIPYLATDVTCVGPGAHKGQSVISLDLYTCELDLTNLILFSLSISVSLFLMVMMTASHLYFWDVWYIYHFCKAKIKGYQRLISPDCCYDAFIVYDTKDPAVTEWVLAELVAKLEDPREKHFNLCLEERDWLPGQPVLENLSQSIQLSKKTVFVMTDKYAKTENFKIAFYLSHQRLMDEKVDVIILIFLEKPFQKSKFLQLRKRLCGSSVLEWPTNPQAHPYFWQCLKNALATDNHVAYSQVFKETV
Procedure: as §1, §2

Structure (SMILES) | EC50 ([1]; Table 1a) [µM] | EC50 ([2]; Table 1a) [µM] | EC50 ([1]; Table 1c) [µM] | EC50 ([2]; Table 1c) [µM] | other results
CCCN(CCC)C(=O)C1=Cc2sc(C(=O)OC)cc2N=C(N)C1 [TAZ-20, methyl 5-amino-7-(dipropylcarbamoyl)-6H-thieno[3,2-b]azepine-2-carboxylate] | > 9 | > 9 |  |  | 
CCCN(CCC)C(=O)C1=Cc2sc(-c3ccccc3)cc2N=C(N)C1 [TAZ-18, 5-amino-2-phenyl-N,N-dipropyl-6H-thieno[3,2-b]azepine-7-carboxamide] | > 9 | > 9 |  |  | 
CCCN(OCC)C(=O)C1=Cc2sc(CN3CC4(CNC4)C3)cc2N=C(N)C1 [TAZ-207] |  |  | ≥ 9 | ≥ 9 | 
CCCN(CCC)C(=O)C1=Cc2sc(C(=O)Nc3ccc(N4CCC(C(=O)NCCNC(=O)OC(C)(C)C)CC4)nc3)cc2N=C(N)C1 [TAZ-3, tert-butyl (2-(1-(5-(5-amino-7-(dipropylcarbamoyl)-6H-thieno[3,2-b]azepine-2-carboxamido)pyridin-2-yl)piperidine-4-carboxamido)ethyl)carbamate] | > 9 | > 9 |  |  | 
CCONC(=O)C1=Cc2sc(CC3CNC3)cc2N=C(N)C1 [TAZ-250] |  |  | ≥ 9 | ≥ 9 | 
CCCN(Cc1cnc(CN(C)C)c(C(F)(F)F)c1)C(=O)C1=Cc2sc(CCCCCNC(=O)OC(C)(C)C)cc2N=C(N)C1 [TAZ-128] |  |  | ≥ 9 | ≥ 9 | 
CCCN(CCC)C(=O)C1=Cc2sc(-c3cn[nH]c3)cc2N=C(N)C1 [TAZ-21, 5-amino-N,N-dipropyl-2-(1H-pyrazol-4-yl)-6H-thieno[3,2-b]azepine-7-carboxamide] | > 9 | > 9 |  |  | 
CCCN(CCCN)C(=O)C1=Cc2sccc2N=C(N)C1 [TAZ-11, 5-amino-N-(3-aminopropyl)-N-propyl-6H-thieno[3,2-b]azepine-7-carboxamide] | > 9 | > 9 |  |  | 
CN(C)Cc1ccc(CN(CCC(F)(F)F)C(=O)C2=Cc3sc(CCCCCN)cc3N=C(N)C2)cc1 [TAZ-117] |  |  | ≥ 9 | ≥ 9 | 
CCCN(OCC)C(=O)C1=Cc2sc(CN3CCCN(C(=O)OC(C)(C)C)CC3)cc2N=C(N)C1 [TAZ-226] |  |  | 4.43 | 0.436 | 
CCCN(CCC)C(=O)C1=Cc2sc(C(=O)Nc3cncnc3)cc2N=C(N)C1 [TAZ-27, 5-amino-N7,N7-dipropyl-N2-pyrimidin-5-yl-6H-thieno[3,2-b]azepine-2,7-dicarboxamide] | > 9 | > 9 |  |  | 
CCCN(CCC)C(=O)C1=Cc2sc(C(=O)Nc3ccccc3)cc2N=C(N)C1 [TAZ-23, 5-amino-N2-phenyl-N7,N7-dipropyl-6H-thieno [3,2-b]azepine-2,7-dicarboxamide] | > 9 | > 9 |  |  | 
CCCN(CCC)C(=O)C1=Cc2sc(Br)cc2N=C(N)C1 [TAZ-1, 5-amino-2-bromo-N,N-dipropyl-6H-thieno[3,2-b]azepine-7-carboxamide] | > 9 | > 9 |  |  | 
CCCN(CCCNC(=O)OC1CCC1)C(=O)C1=Cc2sc(C#CC3CNC3)cc2N=C(N)C1 [TAZ-192] |  |  | 3.48 | 0.824 | 
CCCN(Cc1ccc(CN(C)C)c(C(F)(F)F)n1)C(=O)C1=Cc2sc(CCCCCNC(=O)OC(C)(C)C)cc2N=C(N)C1 [TAZ-146] |  |  | ≥ 9 | ≥ 9 | 
CCCN(CCC)C(=O)C1=Cc2sc(C(=O)NCC)cc2N=C(N)C1 [TAZ-24, 5-amino-N2-ethyl-N7,N7-dipropyl-6H-thieno[3,2-b]azepine-2,7-dicarboxamide] | > 9 | > 9 |  |  | 
CCCN(OCC)C(=O)C1=Cc2sc(CN3CCN(c4ccc(C(=O)OC(C)(C)C)cc4)CC3)cc2N=C(N)C1 [TAZ-205] |  |  | ≥ 9 | ≥ 9 | 
CCCN(CCC)C(=O)C1=Cc2sc(C(=O)O)cc2N=C(N)C1 [TAZ-22, 5-amino-7-(dipropylcarbamoyl)-6H-thieno[3,2-b]azepine-2-carboxylic acid] | > 9 | > 9 |  |  | 
CCCN(OCC)C(=O)C1=Cc2sc(C#CC3CNC3)cc2N=C(N)C1 [TAZ-193] |  |  | 1.52 | 3.36 | 
CCCN(CCC)C(=O)C1=Cc2sc(-c3cnn(S(=O)(=O)N4CC(CO)C4)c3)cc2N=C(N)C1 [TAZ-12, 5-amino-2-[1-[3-(hydroxymethyl)azetidin-1-yl]sulfonylpyrazol-4-yl]-N,N-dipropyl-6H-thieno[3,2-b]azepine-7-carboxamide] | > 9 | > 9 |  |  | 
CCCN(OCC)C(=O)C1=Cc2sc(COCCCN)cc2N=C(N)C1 [TAZ-73] |  |  |  |  | EC50 ([1]; Table 1b): 2.98 µM; EC50 ([2]; Table 1b): > 9 µM
CCCN(CCC)C(=O)C1=Cc2sc(C)cc2N=C(N)C1 [TAZ-7, 5-amino-2-methyl-N,N-dipropyl-6H-thieno[3,2-b]azepine-7-carboxamide] | > 9 | > 9 |  |  | 
CCCN(CCC)C(=O)C1=Cc2sc(CCCCCNC(=O)OC(C)(C)C)cc2N=C(N)C1 [TAZ-13, tert-butyl N-[5-[5-amino-7-(dipropylcarbamoyl)-6H-thieno[3,2-b]azepin-2-yl]pentyl]carbamate] | > 9 | > 9 |  |  | 
CCCN(CCC)C(=O)C1=Cc2sc(-c3cnn(COCC[Si](C)(C)C)c3)cc2N=C(N)C1 [TAZ-19, 5-amino-N,N-dipropyl-2-(1-((2-(trimethylsilyl)ethoxy)methyl)-1H-pyrazol-4-yl)-6H-thieno[3,2-b]azepine-7-carboxamide] | > 9 | > 9 |  |  | 
CCCN(CCCc1ccc(CN2CCNCC2)cc1)C(=O)C1=Cc2sccc2N=C(N)C1 [TAZ-37] |  |  |  |  | EC50 ([1]; Table 1b): 2.94 µM; EC50 ([2]; Table 1b): > 9 µM
CCCN(CCC)C(=O)C1=Cc2sc(Cc3ccccc3)cc2N=C(N)C1 [TAZ-26, 5-amino-2-benzyl-N,N-dipropyl-6H-thieno[3,2-b] azepine-7-carboxamide] | > 9 | > 9 |  |  | 
CCCN(CCC)C(=O)C1=Cc2sc(COCCNC(=O)OC(C)(C)C)cc2N=C(N)C1 [TAZ-80] |  |  |  |  | EC50 ([1]; Table 1b): 3.79 µM; EC50 ([2]; Table 1b): 4 µM
CCCN(OCC)C(=O)C1=Cc2sc(CN3C[C@H]4C[C@@H]3CN4)cc2N=C(N)C1 [TAZ-235] |  |  | 3.05 | 4.57 | 
CCCN(CCC)C(=O)C1=Cc2sc3ccccc3c2N=C(N)C1 [TAZ-28, 2-amino-N,N-dipropyl-3H-benzo[4,5]thieno[3,2-b]azepine-4-carboxamide] | > 9 | > 9 |  |  | 
CCCN(OCC)C(=O)C1=Cc2sc(CN3CCC(c4ccc(C(=O)OC)cc4)CC3)cc2N=C(N)C1 [TAZ-229] |  |  | ≥ 9 | ≥ 9 | 
